These results are taken from the PolyMetriX glass transition set.

In the case of `*CC/C=C(/*)C(C)(C)C` (repeat unit), the glass transition temperature is 20.00 °C.

With `*Oc1ccc(C2(c3ccc(Oc4ccc(C(=O)c5ccccc5-c5ccccc5C(=O)c5ccc(*)cc5)cc4)cc3)c3ccccc3-c3ccccc32)cc1` (repeat unit), the glass transition temperature was 229.00 °C.

The compound `*c1ccc2oc(-c3cc(OCCCCCCCCCC)c(-c4nc5cc(C(*)(C(F)(F)F)C(F)(F)F)ccc5o4)cc3OCCCCCCCCCC)nc2c1` (repeat unit) yielded a glass transition temperature of 94.00 °C.

Turning to `*c1cccc(*)c1` (repeat unit), the glass transition temperature was 104.93 °C.

Turning to `*c1cccc(Oc2cccc(Oc3cccc(N4C(=O)c5c(c(-c6ccccc6)c(-c6ccc(Oc7ccc(Oc8ccc(-c9c(-c%10ccccc%10)c%10c(c(-c%11ccccc%11)c9-c9ccccc9)C(=O)N(*)C%10=O)cc8)cc7)cc6)c(-c6ccccc6)c5-c5ccccc5)C4=O)c3)c2)c1` (repeat unit), the glass transition temperature came to 238.00 °C.

For `*c1cccc(P(=O)(c2ccc(C(F)(F)F)cc2)c2cccc(-n3c(=O)c4c(-c5cc(C(F)(F)F)cc(C(F)(F)F)c5)c5c(=O)n(*)c(=O)c5c(-c5cc(C(F)(F)F)cc(C(F)(F)F)c5)c4c3=O)c2)c1` (repeat unit), the glass transition temperature is 311.00 °C.

`*c1cccc(P(=O)(c2ccc(C(F)(F)F)cc2)c2cccc(-n3c(=O)c4c(-c5ccc(C(F)(F)F)cc5)c5c(=O)n(*)c(=O)c5c(-c5ccc(C(F)(F)F)cc5)c4c3=O)c2)c1` (repeat unit): the glass transition temperature worked out at 324.00 °C.

`*c1cccc(P(=O)(c2ccc(C(F)(F)F)cc2)c2cccc(-n3c(=O)c4cc5c(=O)n(*)c(=O)c5c(-c5ccc(C(F)(F)F)cc5)c4c3=O)c2)c1` (repeat unit) displayed a glass transition temperature of 303.00 °C.

In turn, `*c1cccc(P(=O)(c2ccc(C(F)(F)F)cc2)c2cccc(-n3c(=O)c4cc5c(=O)n(*)c(=O)c5c(-c5ccccc5)c4c3=O)c2)c1` (repeat unit) displayed a glass transition temperature of 311.00 °C.

Take `*c1cccc(P(=O)(c2ccc(Oc3ccc(C45CC6CC(CC(C6)C4)C5)cc3)cc2)c2cccc(-n3c(=O)c4cc5c(=O)n(*)c(=O)c5cc4c3=O)c2)c1` (repeat unit): the glass transition temperature is 330.00 °C.

Turning to `*c1cccc(P(=O)(c2cccc(-n3c(=O)c4c(-c5ccccc5)c5c(=O)n(*)c(=O)c5c(-c5ccccc5)c4c3=O)c2)c2cc(C(F)(F)F)cc(C(F)(F)F)c2)c1` (repeat unit), the glass transition temperature was 320.00 °C.

For `*c1cccc(P(=O)(c2ccccc2)c2cccc(-n3c(=O)c4c(-c5cc(C(F)(F)F)cc(C(F)(F)F)c5)c5c(=O)n(*)c(=O)c5c(-c5cc(C(F)(F)F)cc(C(F)(F)F)c5)c4c3=O)c2)c1` (repeat unit), the glass transition temperature worked out at 324.00 °C.

`*c1cccc(P(=O)(c2ccccc2)c2cccc(-n3c(=O)c4c(-c5ccccc5)c5c(=O)n(*)c(=O)c5c(-c5ccccc5)c4c3=O)c2)c1` (repeat unit) returned a glass transition temperature of 342.00 °C.

In turn, `*c1cccc(P(=O)(c2ccccc2)c2cccc(-n3c(=O)c4cc5c(=O)n(*)c(=O)c5c(-c5ccc(C(F)(F)F)cc5)c4c3=O)c2)c1` (repeat unit) registered a glass transition temperature of 321.00 °C.

`*c1ccccc1C(=O)Oc1ccc2c(*)c3ccc(=O)cc-3oc2c1` (repeat unit) returned a glass transition temperature of 250.00 °C.

The compound `*c1cn(*)c2ccccc12` (repeat unit) yielded a glass transition temperature of 65.00 °C.

On to `*c1nc(-c2ccccc2)nc(N(CCCCCCN(*)c2ccccc2)c2ccccc2)n1` (repeat unit), for which the glass transition temperature stood at 74.00 °C.

Take `*c1nc(C)nc(N(CCCCCCCCCCN(*)c2ccccc2)c2ccccc2)n1` (repeat unit): the glass transition temperature was determined as 48.00 °C.

The compound `*c1nnc(-c2sc(-c3nnc(-c4cc(OCCCCCCCC)c(*)cc4OCCCCCCCC)o3)cc2CCCCCCCC)o1` (repeat unit) had a glass transition temperature of 124.30 °C.

For the compound `*c1sc(*)c(CCCCCCN(CC)c2ccc(/N=N/c3ccc([N+](=O)[O-])cc3)cc2)c1CCCCCC` (repeat unit), the glass transition temperature was 17.00 °C.
